Laboratory results: EP4567035A1, “NOVEL COMPOUND AS HYPOXIA-INDUCIBLE FACTOR 1(HIF-1) INHIBITOR OR VASCULAR ENDOTHELIAL GROWTH FACTOR (VEGF) INHIBITOR, AND PHARMACEUTICAL COMPOSITION COMPRISING SAME” (Nextgen Bioscience Co., Ltd., priority 2022, dated 2024)
Read-outs that look alike come from different tables or passages of the source. One block for each compound: values may come before it.

Experiments:
HIF-1α = molecular target: T1, HIF-1α (Homo sapiens, UniProt Q16665); test: Analysis of HIF-1α protein expression (Western blot) in ARPE-19 cells under mixed hypoxic condition; type: cell-based; settings: concentration range at which HIF-1α expression is reduced by 50% vs untreated control
T1 construct: endogenous in cells; host or cells: ARPE-19 (ATCC CRL-2302)
How it was run: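 ARPE-19 cells were pretreated 16 h or 2 h with compound (0.1 nM–10 µM, serum-free DMEM/F12), then held 1 h or 24 h in mixed hypoxia (1% O2 plus CoCl2). HIF-1α was quantified by Western blot against β-actin; the concentration range giving ≥50% reduction vs untreated control was reported.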

VEGF = test: Evaluation of VEGF protein secretion level (Human VEGF ELISA) in ARPE-19 cell medium under hypoxic conditions; type: cell-based
How it was run: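 Human ARPE-19 cells were pretreated 2 h with compound (0.1 nM–10 µM, in DMEM/F12 with 1% FBS), then held 24 h in hypoxia (1% O2, 5% CO2). Secreted VEGF in the supernatant was quantified by ELISA (A450). The value is the concentration range giving ≥50% VEGF reduction versus untreated control.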

[1] = values marked * in the table, mixed hypoxic condition (1% oxygen + CoCl2) for 24 hours, read-out: IC50 HIF-1α, Hypoxia(24h)
[2] = ARPE-19 cells, pretreated 2 hours, 24 hours hypoxic conditions, secreted VEGF in medium supernatant by ELISA, concentration range reducing VEGF by 50% vs untreated control, read-out: IC50 VEGF
[3] = mixed hypoxic condition (1% oxygen + CoCl2) for 1 hour, read-out: IC50 HIF-1α Hypoxia (1 hour)

T1 sequence (Q16665 whole entry): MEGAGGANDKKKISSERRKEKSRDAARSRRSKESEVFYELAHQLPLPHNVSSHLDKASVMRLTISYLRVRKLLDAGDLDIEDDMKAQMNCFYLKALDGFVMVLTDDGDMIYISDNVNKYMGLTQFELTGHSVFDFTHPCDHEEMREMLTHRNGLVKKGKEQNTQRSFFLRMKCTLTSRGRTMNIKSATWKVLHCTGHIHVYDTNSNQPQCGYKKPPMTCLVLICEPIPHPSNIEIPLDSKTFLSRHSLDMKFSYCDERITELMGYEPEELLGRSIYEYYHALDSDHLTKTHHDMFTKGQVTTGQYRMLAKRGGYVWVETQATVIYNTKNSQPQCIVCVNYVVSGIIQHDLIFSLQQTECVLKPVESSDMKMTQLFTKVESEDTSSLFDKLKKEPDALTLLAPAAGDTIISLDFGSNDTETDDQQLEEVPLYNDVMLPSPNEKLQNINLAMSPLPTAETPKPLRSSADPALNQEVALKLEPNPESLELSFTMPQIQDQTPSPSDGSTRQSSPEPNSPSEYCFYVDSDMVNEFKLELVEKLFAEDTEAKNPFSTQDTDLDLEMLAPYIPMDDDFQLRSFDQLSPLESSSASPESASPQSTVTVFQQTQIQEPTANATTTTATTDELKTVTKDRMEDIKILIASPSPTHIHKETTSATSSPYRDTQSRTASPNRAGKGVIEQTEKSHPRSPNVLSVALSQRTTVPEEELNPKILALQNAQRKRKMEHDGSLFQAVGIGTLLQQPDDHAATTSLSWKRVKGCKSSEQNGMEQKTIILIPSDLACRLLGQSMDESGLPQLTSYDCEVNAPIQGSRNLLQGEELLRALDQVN

SMILES: O=C(NCc1ccc(-c2cnn(-c3ccc(F)cc3)c2)cc1)c1ncnc2nc(C3CCCC3)[nH]c12 [Example 108, 8-Cyclopentyl-N-(4-(1-(4-fluorophenyl)-1H-pyrazol-4-yl)benzyl)-7H-purine-6-carboxamide]
- DC50 (HIF-1α; [1]): > 10 µM
- IC50 (VEGF; [2]): > 10 µM

SMILES: COC(=O)C1CC(c2nc3ncnc(C(=O)NCc4cc(F)cc(-c5cnn(-c6ccc(F)cc6)c5)c4)c3[nH]2)C1 (single isomer, unassigned) [103(B), Methyl 3-(6-((3-fluoro-5-(1-(4-fluorophenyl)-1H-pyrazol-4-yl)benzyl)carbamoyl)-7H-purin-8-yl)cyclobutanecarboxylate]
- DC50 (HIF-1α; [1]): > 10 µM
- IC50 (VEGF; [2]): > 10 µM

SMILES: CN1CCC[C@H]1c1nc2ncnc(C(=O)NCc3cc(F)cc(-c4cnn(C)c4)c3)c2[nH]1 [Example 63, (S)-N-(3-fluoro-5-(1-methyl-1H-pyrazol-4-yl)benzyl)-8-(1-methylpyrrolidin-2-yl)-7H-purine-6-carboxamide]
- DC50 (HIF-1α; [3]): 0.1 to 1 µM
- IC50 (VEGF; [2]): 1 to 10 µM

SMILES: O=C(NCc1cc(F)cc(-c2ccsc2)c1)c1ncnc2nc(C3CCCC3)[nH]c12 [Example 40, 8-Cyclopentyl-N-(3-fluoro-5-(thiophen-3-yl)benzyl)-7H-purine-6-carboxamide]
- DC50 (HIF-1α; [1]): < 0.1 µM
- IC50 (VEGF; [2]): 0.1 to 1 µM

SMILES: O=C(NCc1cc(F)cc(-c2cnn(-c3ccc(F)cc3)c2)c1)c1ncnc2nc(C3CC4CC4C3)[nH]c12 (stereo not shown) [Example 113, 8-(Bicyclo[3.1.0]hexan-3-yl)-N-(3-fluoro-5-(1-(4-fluorophenyl)-1H-pyrazol-4-yl)benzyl)-7H-purine-6-carboxamide]
- DC50 (HIF-1α; [1]): < 0.1 µM
- IC50 (VEGF; [2]): 0.1 to 1 µM

SMILES: O=C(NCc1cc(F)cc(Nc2nncs2)c1)c1ncnc2nc(C3CCCC3)[nH]c12 [Example 136, N-(3-((1,3,4-thiadiazol-2-yl)amino)-5-fluorobenzyl)-8-cyclopentyl-7H-purine-6-carboxamide]
- DC50 (HIF-1α; [1]): 0.1 to 1 µM
- IC50 (VEGF; [2]): > 10 µM

SMILES: O=C(NCc1cc(F)cc(-c2cnn(-c3ccc(F)cc3)c2)c1)c1ncnc2nc(C3CCCC3)[nH]c12 [Example 27, 8-Cyclopentyl-N-(3-fluoro-5-(1-(4-fluorophenyl)-1H-pyrazol-4-yl)benzyl)-7H-purine-6-carboxamide]
- DC50 (HIF-1α; [3]): < 0.1 µM
- IC50 (VEGF; [2]): 0.1 to 1 µM

SMILES: Cn1cc(-c2cc(F)cc(CNC(=O)c3ncnc4nc(C5CC6C(C5)C6(F)F)[nH]c34)c2)cn1 (stereo not shown) [Example 77, 8-(6,6-Difluorobicyclo[3.1.0]hexan-3-yl)-N-(3-fluoro-5-(1-methyl-1H-pyrazol-4-yl)benzyl)-7H-purine-6-carboxamide]
- DC50 (HIF-1α; [3]): 0.1 to 1 µM
- IC50 (VEGF; [2]): 1 to 10 µM

SMILES: O=C(Nc1cc(F)cc(-c2cnn(-c3ccc(F)cc3)c2)c1)c1ncnc2nc(C3CCCC3)[nH]c12 [Example 105, 8-Cyclopentyl-N-(3-fluoro-5-(1-(4-fluorophenyl)-1H-pyrazol-4-yl)phenyl)-7H-purine-6-carboxamide]
- DC50 (HIF-1α; [1]): > 10 µM
- IC50 (VEGF; [2]): > 10 µM

SMILES: O=C(NCc1cc(F)cc(-c2cnn(-c3ccc(F)cc3)c2)c1)c1ncnc2nc(C3CC4(C3)CC(F)(F)C4)[nH]c12 [Example 98, 8-(6,6-Difluorospiro[3.3]heptan-2-yl)-N-(3-fluoro-5-(1-(4-fluorophenyl)-1H-pyrazol-4-yl)benzyl)-7H-purine-6-carboxamide]
- DC50 (HIF-1α; [1]): 1 to 10 µM
- IC50 (VEGF; [2]): > 10 µM

SMILES: Cn1cc(Nc2cc(F)cc(CNC(=O)c3ncnc4nc(C5CCC(F)(F)C5)[nH]c34)c2)cn1 (stereo not shown) [Example 144, 8-(3,3-Difluorocyclopentyl)-N-(3-fluoro-5-((1-methyl-1H-pyrazol-4-yl)amino)benzyl)-7H-purine-6-carboxamide]
- DC50 (HIF-1α; [1]): < 0.1 µM
- IC50 (VEGF; [2]): 0.1 to 1 µM

SMILES: CS(=O)(=O)c1ccc(Nc2cc(F)cc(CNC(=O)c3ncnc4nc(C5CCCC5)[nH]c34)c2)cc1 [Example 19, 8-Cyclopentyl-N-(3-fluoro-5-((4-(methylsulfonyl)phenyl)amino)benzyl)-7H-purine-6-carboxamide]
- DC50 (HIF-1α; [3]): < 0.1 µM
- IC50 (VEGF; [2]): 0.1 to 1 µM

SMILES: O=C(NCc1cc(F)cc(-c2cn(-c3ccc(F)cc3)nn2)c1)c1ncnc2nc(C3CCCC3)[nH]c12 [Example 119, 8-Cyclopentyl-N-(3-fluoro-5-(1-(4-fluorophenyl)-1H-1,2,3-triazol-4-yl)benzyl)-7H-purine-6-carboxamide]
- DC50 (HIF-1α; [1]): 0.1 to 1 µM
- IC50 (VEGF; [2]): > 10 µM

SMILES: O=C(NCc1cc(F)cc(-c2cnn(-c3ccc(F)cc3)c2)c1)c1nccc2nc(C3CCCC3)[nH]c12 [Example 93, 2-Cyclopentyl-N-(3-fluoro-5-(1-(4-fluorophenyl)-1H-pyrazol-4-yl)benzyl)-3H-imidazo[4,5-c]pyridine-4-carboxamide]
- DC50 (HIF-1α; [1]): < 0.1 µM
- IC50 (VEGF; [2]): 0.1 to 1 µM

Second part, the compound after the results:

- DC50 (HIF-1α; [1]): 0.1 to 1 µM
- IC50 (VEGF; [2]): 0.1 to 1 µM
SMILES: O=C1CC[C@@H](c2nc3ncnc(C(=O)NCc4cc(F)cc(-c5cnn(-c6ccc(F)cc6)c5)c4)c3[nH]2)C1 [Example 86, (R)-N-(3-fluoro-5-(1-(4-fluorophenyl)-1H-pyrazol-4-yl)benzyl)-8-(3-oxocyclopentyl)-7H-purine-6-carboxamide]

- DC50 (HIF-1α; [1]): 0.1 to 1 µM
- IC50 (VEGF; [2]): 0.1 to 1 µM
SMILES: O=C(NCc1cccc(-c2cnn(-c3ccc(F)cc3)c2)c1F)c1ncnc2nc(C3CCCC3)[nH]c12 [Example 95, 8-Cyclopentyl-N-(2-fluoro-3-(1-(4-fluorophenyl)-1H-pyrazol-4-yl)benzyl)-7H-purine-6-carboxamide]

- DC50 (HIF-1α; [3]): < 0.1 µM
- IC50 (VEGF; [2]): 0.1 to 1 µM
SMILES: O=C(NCc1cc(F)cc(-c2cnn(CC(F)(F)F)c2)c1)c1ncnc2nc(C3CCCC3)[nH]c12 [Example 3, 8-Cyclopentyl-N-(3-fluoro-5-(1-(2,2,2-trifluoroethyl)-1H-pyrazol-4-yl)benzyl)-7H-purine-6-carboxamide]

- DC50 (HIF-1α; [1]): < 0.1 µM
- IC50 (VEGF; [2]): 0.1 to 1 µM
SMILES: O=C(NCc1cc(F)cc(-c2cnn(-c3ccsc3)c2)c1)c1ncnc2nc(C3CCCC3)[nH]c12 [Example 117, 8-Cyclopentyl-N-(3-fluoro-5-(1-(thiophen-3-yl)-1H-pyrazol-4-yl)benzyl)-7H-purine-6-carboxamide]

- DC50 (HIF-1α; [1]): < 0.1 µM
- IC50 (VEGF; ARPE-19 cells, pretreated 2 hours, 24 hours hypoxic conditions, ELISA, read-out: concentration at which the secreted VEGF protein level was suppressed to less than 50%): < 0.1 µM
- IC50 (VEGF; [2]): < 0.1 µM
- IC50 (VEGF; Experimental Example 2 (HIF-1α Western blot), read-out: concentration at which the expression level of VEGF was suppressed to less than 50%): < 0.1 µM
SMILES: O=C(NCc1cc(F)cc(-c2cnn(-c3ccc(F)nc3)c2)c1)c1ncnc2nc(C3CCC(F)(F)C3)[nH]c12 (stereo not shown) [Example 82, 8-(3,3-Difluorocyclopentyl)-N-(3-fluoro-5-(1-(6-fluoropyridin-3-yl)-1H-pyrazol-4-yl)benzyl)-7H-purine-6-carboxamide]

- DC50 (HIF-1α; [3]): < 0.1 µM
- IC50 (VEGF; [2]): 0.1 to 1 µM
SMILES: Cn1cc(Nc2cc(F)cc(CNC(=O)c3ncnc4nc(C5CCCC5)[nH]c34)c2)cn1 [Example 8, 8-Cyclopentyl-N-(3-fluoro-5-((1-methyl-1H-pyrazol-4-yl)amino)benzyl)-7H-purine-6-carboxamide]

- DC50 (HIF-1α; [3]): < 0.1 µM
- IC50 (VEGF; [2]): 0.1 to 1 µM
SMILES: O=C(NCc1cc(F)cc(-c2cnn(-c3ccccn3)c2)c1)c1ncnc2nc(C3CCCC3)[nH]c12 [Example 30, 8-Cyclopentyl-N-(3-fluoro-5-(1-(pyridin-2-yl)-1H-pyrazol-4-yl)benzyl)-7H-purine-6-carboxamide]

- DC50 (HIF-1α; [3]): < 0.1 µM
- IC50 (VEGF; [2]): 0.1 to 1 µM
SMILES: O=C(NCc1cc(F)cc(Nc2ccc(C(F)(F)F)cc2)c1)c1ncnc2nc(C3CCCC3)[nH]c12 [Example 41, 8-Cyclopentyl-N-(3-fluoro-5-((4-(trifluoromethyl)phenyl)amino)benzyl)-7H-purine-6-carboxamide]

- DC50 (HIF-1α; [3]): < 0.1 µM
- IC50 (VEGF; [2]): 0.1 to 1 µM
SMILES: O=C(NCc1cc(F)cc(-c2cnn(Cc3cccc(C(F)(F)F)c3)c2)c1)c1ncnc2nc(C3CCCC3)[nH]c12 [Example 29, 8-Cyclopentyl-N-(3-fluoro-5-(1-(3-(trifluoromethyl)benzyl)-1H-pyrazol-4-yl)benzyl)-7H-purine-6-carboxamide]

- DC50 (HIF-1α; [1]): < 0.1 µM
- IC50 (VEGF; [2]): < 0.1 µM
SMILES: NC(=O)c1ccc(Nc2cc(F)cc(CNC(=O)c3ncnc4nc(C5CCCC5)[nH]c34)c2)cc1 [Example 126, N-(3-((4-carbamoylphenyl)amino)-5-fluorobenzyl)-8-cyclopentyl-7H-purine-6-carboxamide]

- DC50 (HIF-1α; [1]): < 0.1 µM
- IC50 (VEGF; [2]): 0.1 to 1 µM
SMILES: NC(=O)c1ccc(-n2cc(-c3cc(F)cc(CNC(=O)c4ncnc5nc(C6CCCC6)[nH]c45)c3)cn2)cc1 [Example 53, N-(3-(1-(4-carbamoylphenyl)-1H-pyrazol-4-yl)-5-fluorobenzyl)-8-cyclopentyl-7H-purine-6-carboxamide]

- DC50 (HIF-1α; [1]): < 0.1 µM
- IC50 (VEGF; [2]): 0.1 to 1 µM
SMILES: O=C(NCc1cc(F)cc(-c2cnn(-c3ccc(F)cc3)c2)c1)c1ncnc2nc(C3CCC(F)C3)[nH]c12 (single isomer, unassigned) [110(A), N-(3-Fluoro-5-(1-(4-fluorophenyl)-1H-pyrazol-4-yl)benzyl)-8-(3-fluorocyclopentyl)-7H-purine-6-carboxamide]

- DC50 (HIF-1α; [3]): < 0.1 µM
- IC50 (VEGF; [2]): 0.1 to 1 µM
SMILES: O=C(NCc1cc(F)cc(-c2ccn(-c3ccc(F)cc3)n2)c1)c1ncnc2nc(C3CCCC3)[nH]c12 [Example 51, 8-Cyclopentyl-N-(3-fluoro-5-(1-(4-fluorophenyl)-1H-pyrazol-3-yl)benzyl)-7H-purine-6-carboxamide]

- DC50 (HIF-1α; [1]): < 0.1 µM
- IC50 (VEGF; [2]): < 0.1 µM
SMILES: Cn1cc(-n2cc(-c3cc(F)cc(CNC(=O)c4ncnc5nc(C6CCCC6)[nH]c45)c3)cn2)cn1 [Example 128, 8-Cyclopentyl-N-(3-fluoro-5-(1'-methyl-1'H-[1,4'-bipyrazol]-4-yl)benzyl)-7H-purine-6-carboxamide]
